Assay results taken from ChEMBL document CHEMBL3832761, “MMV Pathogen Box Bioactivity Data” (2017).
pIC50: −log10 of the molar value.

Tests used:
Plasmodium berghei = experiment: Antimalarial activity: Liver Stage Plasmodium berghei sporozoite Luciferase assay: inhibition at 10 uM (%); assay type: functional
HepG2 [1] = experiment: Cytotoxicity data HepG2 CC20 (uM); assay type: functional
Plasmodium falciparum [2] = experiment: Antimalarial activity: Gametocytes Plasmodium falciparum NF54 Gametocytes Stage V: inhibition at 10 uM (%); assay type: functional
Plasmodium falciparum [3] = experiment: Antimalarial activity: Asexual Blood Stage Plasmodium falciparum Dd2 IC50 (uM); assay type: functional, organism-based
Plasmodium falciparum [4] = experiment: Antimalarial activity: Asexual Blood Stage Plasmodium falciparum 3D7 IC50 (uM); assay type: functional, organism-based
HepG2 [5] = experiment: HepG2 inhibition at 10 uM (%) Cytotoxicity; assay type: functional; settings: Homo sapiens
Plasmodium falciparum [6] = experiment: Antimalarial activity: Asexual Blood Stage Plasmodium falciparum W2 IC50 (uM); assay type: functional, organism-based

Compound | Inhibition (Plasmodium berghei) [%] | CC20 (HepG2 [1]) [nM] | Inhibition (Plasmodium falciparum [2]) [%] | pIC50 (Plasmodium falciparum [3]) | pIC50 (Plasmodium falciparum [4]) | inhibition at 10 µM (HepG2 [5]) [%] | pIC50 (Plasmodium falciparum [6])
Cc1cc2ccccc2n1CC(=O)N1CC(C(=O)N2CCCCC2)Oc2ccccc21 (stereo unspecified) | 1 | 21800 | 30 | 6.11 | 5.97 | 10 | 5.98
CC(C)NCC(=O)Nc1cccc(C(=O)Nc2cccc(C(F)(F)F)c2)c1 | 47 | 11500 | 40 | 5.39 | 6.46 | 0 | 5.65
O=C(c1ccc(NCCO)cc1)C1C[C@H]1c1ccc(Cl)cc1 (stereo partly specified) | 44 | 12800 | 20 | 5.79 | 6.18 | 5 | 5.65
Cc1noc(C)c1C(=O)N1CCCC(c2[nH]c3c(C)cccc3c2-c2ccncc2)C1 (stereo unspecified) | 52 | >80000 | 42 | 6.13 | 6.03 | 0 | 6.21
COc1ccccc1CNC(=O)c1cc(C2CC2)nc2c1cnn2C(C)C | 39 | 11300 | 36 | 5.82 | 6.03 | 5 | 5.69
O=C(Nc1cnc2ccccc2c1)c1cccc(-n2cnnn2)c1 | 0 | >80000 | 1 | 5.73 | 6.27 | 0 | 6.24
COc1ccc(C2CC(c3cccs3)=NN2C(=O)c2ccco2)cc1OC (stereo unspecified) | 26 | 43100 | 1 | 6.01 | 6.52 | 15 | 6.07
CN1CCN(S(=O)(=O)c2ccc(-c3ccc4c(Nc5ccc6nn[nH]c6c5)ccnc4c3)cc2)CC1 | 0 | >80000 | 8 | 6.38 | 6.38 | 0 | 6.10
COc1ccccc1C(C)NCC(=O)Nc1cc(C(F)(F)F)ccc1Cl (stereo unspecified) | 55 | 33700 | 1 | 5.55 | 5.86 | 13 | 5.85
CNC(=O)c1cc(S(=O)(=O)N2CCN(c3ccccn3)CC2)cs1 | 9 | >80000 | 34 | 6.07 | 5.95 | 6 | 6.01
CC1CCCN(C(=O)C(C)Nc2cc(Cl)ccc2N2CCOCC2)C1 (stereo unspecified) | 46 |  | 9.53 | 5.88 | 6.28 | 13 | 6.06
Cc1cc(Nc2ccncc2)n2nc(C)c(-c3ccccc3Cl)c2n1 | 35 | 80000 | 46 | 6.16 | 6.20 | 3 | 6.31
COc1cc(OC)cc(C(=O)NCC2Cc3cc(Cl)cc(-c4ccncc4)c3O2)c1 (stereo unspecified) | 52 |  | 12.1 | 5.49 | 6.24 | 9 | 5.99
CC(C)c1ncc(-c2ccncc2)c([C@H]2CC[C@H](CNC(=O)c3cccnc3)CC2)n1 | 0 | >80000 | 3 | 6.00 | 6.08 | 0 | 6.18
Cc1ccc2[nH]c3c(NCCN(C)C)ncnc3c2c1 | 0 |  | 21 | 5.88 | 6.10 | 4 | 5.40
CCn1cnc2c(Nc3cc(F)cc(F)c3)nc(C#N)nc21 | 0 |  | 3 | 6.03 | 6.05 | 5 | 6.03
O=S(=O)(c1ccc(Cl)cc1)N1CCN(C(=S)NCc2ccco2)CC1 | 23 | 28300 | 32 | 6.12 | 5.92 | 0 | 5.90
COc1cc2ncnc(NC3CCN(Cc4ccccc4)CC3)c2cc1OC | 46 |  | 3 | 6.01 | 6.21 | 36 | 5.81
COc1ccc(-c2cncc3ccc(C(=O)NCCCn4ccnc4)nc23)cc1 | 98 |  | 71.3 | 5.87 | 5.97 | 47 | 5.76
Cc1cc(C)n(-c2ccc(NC(=O)C3CCN(Cc4cnc(C)s4)CC3)cc2)n1 | 38 |  | 0 | 5.61 | 6.11 | 18 | 5.73
COc1ccc(Cl)cc1NC(=O)CN(C)C(=O)c1cnn(-c2ccccc2)n1 | 48 | 72200 | 60 | 6.62 | 6.62 | 6 | 6.54
Cc1ccc2cc(C3NC(=O)c4ccccc4N3)c(Cl)nc2c1 (stereo unspecified) | 37 | >80000 | 0 | 5.63 | 5.78 | 2 | 6.00
CCc1cc(=O)n(C)c(SC(C)C(=O)Nc2ccc(F)cc2)n1 (stereo unspecified) | 47 |  | 0 | 5.70 | 5.71 | 25 | 5.68
CC(C(=O)N1CCCC1)N1CCN(S(=O)(=O)c2ccc(C(C)(C)C)cc2)CC1 (stereo unspecified) | 18 | >80000 | 1 | 5.88 | 6.05 | 0 | 5.66
Cc1nn(C)cc1C(C)Nc1nncc(-c2ccc(C(F)(F)F)cc2)n1 (stereo unspecified) | 45 |  | 0 | 6.70 | 6.92 | 19 | 6.59
CC(C)C(C(=O)Nc1ccc(S(=O)(=O)N(C)C)cc1)c1ccc(Cl)cc1 (stereo unspecified) | 66 | 5350 | 31 | 6.19 | 6.03 | 17 | 6.10
Nc1ncc(Br)cc1-c1nc2cc(Cl)cnc2[nH]1 | 89 |  | 0 | 5.65 | 5.82 | 42 | 5.62
Cc1cc(NC(=O)c2ccc(S(=O)(=O)N(Cc3ccccc3)C(C)C)cc2)no1 | 72 |  | 12.9 | 5.87 | 6.01 | 13 | 6.16
COc1ccc(CCN2CCC(NCc3cccc(N(C)C)c3)CC2)cc1 | 67 |  | 4.11 | 5.52 | 5.92 | 6 | 5.35
